{"source": "patent US4973691A", "about": "“Etheric derivative of 4(3H)-quinazolinone and a process for preparation thereof” (Spojene Podniky Prozdravotnickou Vyrobu (SPOFA), priority 1988, dated 1990)", "key": {"analgesic activity": {"assay": "analgesic activity", "format": "in vivo", "details": "for ED50 (analgesic activity): p.o.; for ED50: po"}, "[1]": {"details": "extensive investigations in recent years; cited from earlier work"}, "in vivo": {"assay": "in vivo", "details": "po"}, "gastrotoxicity": {"assay": "gastrotoxicity", "details": "in vivo"}, "[2]": {"details": "LD50 (acute (short-time) toxicity)"}}, "note": "Where a name gives a salt, the structure may show the parent alone.", "data": [{"compound": "O=c1c2ccccc2ncn1CCOc1ccc(-c2ccc(F)cc2F)cc1", "note": "[Preferred etheric derivative (hydrochloride salt)]", "values": [{"measurement": "ED50 (analgesic activity)", "setting": "analgesic activity", "result": 26, "unit": "mg/kg"}]}, {"compound": "Cc1c(N(C)C)c(=O)n(-c2ccccc2)n1C", "note": "[Aminophenazone, 1-phenyl-2,3-dimethyl-4-dimethylamino-5-pyrazolone]", "values": [{"measurement": "ED50", "setting": "analgesic activity", "result": 104, "unit": "mg/kg"}, {"measurement": "cancerogenic properties", "setting": "[1]", "result": "potentially cancerogenic properties"}, {"measurement": "LD50", "setting": "in vivo", "result": 800, "unit": "mg/kg"}]}, {"compound": "CC(=O)Oc1ccccc1C(=O)O", "note": "[Acetylosalicylic acid]", "values": [{"measurement": "ED50", "setting": "analgesic activity", "result": 190, "unit": "mg/kg"}, {"measurement": "LD50", "setting": "in vivo", "result": 1070, "unit": "mg/kg"}]}, {"compound": "CC(=O)Nc1ccc(O)cc1", "note": "[Paracetamol, 4-hydroxyacetanilide]", "values": [{"measurement": "ED50", "setting": "analgesic activity", "result": 285, "unit": "mg/kg"}, {"measurement": "LD50", "setting": "in vivo; [2]", "result": 1090, "unit": "mg/kg"}]}, {"compound": "O=c1c2ccccc2ncn1CCOc1ccc(-c2ccc(F)cc2F)cc1", "note": "[Preferred etheric derivative (base), 3-[2-(2',4'-difluoro-4-biphenylyloxy)ethyl]-4(3H)-quinazolinone]", "values": [{"measurement": "ED50 (analgesic activity)", "setting": "analgesic activity", "result": 71, "unit": "mg/kg"}, {"measurement": "signs of gastrotoxicity", "setting": "gastrotoxicity", "result": "free of any signs of gastrotoxicity"}, {"measurement": "signs of cancerogenity", "setting": "cancerogenity", "result": "free of any signs of gastrotoxicity and cancerogenity"}, {"measurement": "LD50", "setting": "in vivo; [2]", "result": 1000, "unit": "mg/kg"}]}, {"compound": "CC(C)Cc1ccc(C(C)C(=O)O)cc1", "note": "(centres unmarked) [Ibuprofen, 2-(4-isobutylphenyl)propionic acid]", "values": [{"measurement": "ED50", "setting": "analgesic activity", "result": 179, "unit": "mg/kg"}]}, {"compound": "O=c1c2ccccc2ncn1CCOc1ccc(-c2ccc(F)cc2F)cc1", "values": [{"measurement": "LD50", "setting": "in vivo; [2]", "result": 2000, "unit": "mg/kg"}]}]}
